Test results reported in paper PMC8201255, “A Combined Experimental and Theoretical Study of Nitrofuran Antibiotics: Crystal Structures, DFT Computations, Sublimation and Solution Thermodynamics” (Molecules, 2021).
Where two headings read alike, the source gives them in different places.

How the values were obtained:
[1] = 298.15 K, cited from earlier work
[2] = for solubility X2·10^5: p = 0.1 MPa, value is X2·10^5
Method: All the solubility experiments were carried out using the analytical isothermal shake-flask method. […] In brief, an excess amount of API was added to triplicate Pyrex glass tubes containing the respective dissolution media. […] The concentrations of the dissolved APIs were measured spectrophotometrically using a Cary 50 UV-vis spectrophotometer (Varian, Australia) with an accuracy of 2–4%.
Conversion of molarity to mole fraction concentration scale was produced using Equation (10):(10) X2=M2S2/S2(M2−M1)+1000ρ where S2 is molarity of API (mol·L^−1), M1 and M2 are the molar masses of solvent and solute, respectively, and ρ (g·cm^−3) is the density of the pure solvents. The mole fraction solubilities for buffer solutions were calculated taking into account the buffer compositions. Densities of buffer solutions (pH 2.0 and 7.4) were measured and published early.
The results are stated as the average of at least three replicated experiments.

[3] = Method: Details of the technique are given in the literature. In brief: a flow of the inert gas (N2) through the tube transported the saturated vapor of the sample under investigation at a constant temperature and flow rate. The sample vapor is completely condensed at some point downstream. The sample vapor pressure at this temperature was calculated from the sublimated sample amount and the volume of the inert gas used. The mass of sublimated substance was determined using a spectrophotometer method by means of spectrophotometer Cary-50 (Varian, Australia).
The equipment was calibrated with benzoic acid, as specified in earlier work of our research group.
Absolute vapor pressures for compounds are usually approximated by the Clarke–Glew equation [38].
The value of the sublimation enthalpy is calculated by the Clausius–Clayperon equation:(7) ΔcrgHm0(T)=−R⋅(∂(lnp)/∂(1/T))
The sublimation entropy at a given temperature T is calculated by the following relation:(8) ΔcrgSm0(T)=(ΔcrgHm0(T)−ΔcrgGm0(T))/T with ΔcrgGm0(T)=−RTln(p/p0) , where p0 is the standard pressure (1 × 10^5 Pa).
For experimental reasons, the sublimation data are obtained at high temperatures. However, in comparison with the effusion methods, the temperatures are much lower, which makes extrapolation to room conditions easier.
Van der Waals molecular volumes ( V^vdw ) were estimated by the program GEPOL [50] using atom radiuses proposed by Kitaigorodskii. The free molecular volume in the crystal lattice was calculated on the basis of the single crystal X-ray diffraction data:(14) V^free=V^mol−V^vdw where V^mol is the molecular volume in crystal lattice, which is estimated by the equation:(15) V^mol=V^cell/Z where V^cell is the unit cell volume and Z is the number of molecules in the unit cell.

[4] = for TΔSsol0 / ΔGsol0 / ΔHsol0 / ΔSsol0: dissolution; for ςHsolv: relative fraction of solvation enthalpy; for ςTSsolv: relative fraction of solvation entropy; for TΔSsolv0 / ΔGsolv0 / ΔHsolv0 / ΔSsolv0: solvation
Remark: listed apart in the source
[5] = ref Koradia et al. [34]; cited from earlier work
[6] = buffer pH 2.0, 298.15 K (Table 5)
[7] = buffer pH 7.4, 298.15 K (Table 5)

O=C1CNC(=O)N1 [2,4-Imidazolidinedione]
Δgcr Hm0 (298.15) ([1]; ref [7]): 27.8 kcal/mol | ΔgcrGm0 (298.15) ([1]; ref [7]): 13.8 kcal/mol

O=C1CNC(=S)N1 [2-Thiohydantoin]
Δgcr Hm0 (298.15) ([1]; ref [7]): 28.47 kcal/mol | ΔgcrGm0 (298.15) ([1]; ref [7]): 14.4 kcal/mol

O=C1NCCN1 [2-imadazolidinone]
Δgcr Hm0 (298.15) ([1]; ref [5]): 20 kcal/mol | ΔgcrGm0 (298.15) ([1]; ref [5]): 10.2 kcal/mol

O=Cc1ccc(-c2ccc([N+](=O)[O-])cc2)o1 [5-(4-nitrophenyl)-furan-2-carbaldehyde]
Δgcr Hm0 (298.15) ([1]; ref [8]): 32.48 kcal/mol | ΔgcrGm0 (298.15) ([1]; ref [8]): 15.6 kcal/mol

O=C1CN(/N=C/c2ccc([N+](=O)[O-])o2)C(=O)N1 [NFT, nitrofurantoin]
X2 (solubility) ([2]; 1-octanol, 298.15 K (Table 5)): 3.61·10^5 mol.frac. | solubility X2·10^5 ([2]; 1-octanol, 298.15 K): 3.61 mol. frac. | solubility X2·10^5 ([2]; 1-octanol, 303.15 K): 4.97 mol. frac. | solubility X2·10^5 ([2]; 1-octanol, 308.15 K): 6.53 mol. frac. | solubility X2·10^5 ([2]; 1-octanol, 313.15 K): 8.26 mol. frac. | X2 (solubility) [2, 6]: 1.49·10^5 mol.frac. | solubility X2·10^5 ([2]; buffer pH 2.0, 298.15 K): 1.49 mol. frac. | solubility X2·10^5 ([2]; buffer pH 2.0, 303.15 K): 1.82 mol. frac. | solubility X2·10^5 ([2]; buffer pH 2.0, 308.15 K): 2.26 mol. frac. | solubility X2·10^5 ([2]; buffer pH 2.0, 313.15 K): 2.46 mol. frac. | X2 (solubility) [2, 7]: 3.28·10^5 mol.frac. | solubility X2·10^5 ([2]; buffer pH 7.4, 298.15 K): 3.28 mol. frac. | solubility X2·10^5 ([2]; buffer pH 7.4, 303.15 K): 4.33 mol. frac. | solubility X2·10^5 ([2]; buffer pH 7.4, 308.15 K): 5.51 mol. frac. | solubility X2·10^5 ([2]; buffer pH 7.4, 313.15 K): 6.72 mol. frac. | 298.15⋅ΔcrgSm0(298.15K) ([3]; 298.15 K): 14.7 kcal/mol | ΔcrgGm0(298.15), sublimation Gibbs energy ([3]; 298.15 K): 20.4 kcal/mol | ΔcrgHm0(298.15K), sublimation enthalpy ([3]; 298.15 K): 35.01 ± 0.17 kcal/mol | ΔcrgSm0(298.15K), sublimation entropy ([3]; 298.15 K): 205.5 ± 2.8 J·mol^−1·K^−1 | ΔcrgHm0(T), sublimation enthalpy ([3]; at experimental temperature T): 33.44 ± 0.17 kcal/mol | ςH ([3]; enthalpy term of sublimation, 298.15 K): 70.5% | ςTS ([3]; entropy term of sublimation, 298.15 K): 29.5% | p(298.15K), saturated vapor pressure ([3]; extrapolated to 298.15 K): 1.19·10^−10 Pa | β = V^free/V^vdw ([3]; free volume in the crystal lattice over van der Waals volume): 36.3% | TΔSsol0 ([4]; 1-octanol, 298.15 K): 4.18 kcal/mol | ΔGsol0 ([4]; 1-octanol, 298.15 K): 6.07 kcal/mol | ΔHsol0 ([4]; 1-octanol, 298.15 K): 10.2 ± 0.406 kcal/mol | ΔSsol0 ([4]; 1-octanol, 298.15 K): 58.5 ± 2.5 J·K^−1·mol^−1 | TΔSsol0 ([4]; buffer pH 2.0, 298.15 K): -0.22 kcal/mol | ΔGsol0 ([4]; buffer pH 2.0, 298.15 K): 6.57 kcal/mol | ΔHsol0 ([4]; buffer pH 2.0, 298.15 K): 6.36 ± 0.669 kcal/mol | ΔSsol0 ([4]; buffer pH 2.0, 298.15 K): −3.1 ± 3.7 J·K^−1·mol^−1 | TΔSsol0 ([4]; buffer pH 7.4, 298.15 K): 2.84 kcal/mol | ΔGsol0 ([4]; buffer pH 7.4, 298.15 K): 6.12 kcal/mol | ΔHsol0 ([4]; buffer pH 7.4, 298.15 K): 8.96 ± 0.454 kcal/mol | ΔSsol0 ([4]; buffer pH 7.4, 298.15 K): 39.9 ± 2.7 J·K^−1·mol^−1 | ςHsolv ([4]; 1-octanol, 298.15 K): 70.3% | ςHsolv ([4]; buffer pH 2.0, 298.15 K): 65.8% | ςHsolv ([4]; buffer pH 7.4, 298.15 K): 68.8% | ςTSsolv ([4]; 1-octanol, 298.15 K): 29.7% | ςTSsolv ([4]; buffer pH 2.0, 298.15 K): 34.2% | ςTSsolv ([4]; buffer pH 7.4, 298.15 K): 31.2% | TΔSsolv0 ([4]; 1-octanol, 298.15 K): -10.5 kcal/mol | ΔGsolv0 ([4]; 1-octanol, 298.15 K): -14.3 kcal/mol | ΔHsolv0 ([4]; 1-octanol, 298.15 K): -24.78 kcal/mol | ΔSsolv0 ([4]; 1-octanol, 298.15 K): −147.0 J·K^−1·mol^−1 | TΔSsolv0 ([4]; buffer pH 2.0, 298.15 K): -14.9 kcal/mol | ΔGsolv0 ([4]; buffer pH 2.0, 298.15 K): -13.8 kcal/mol | ΔHsolv0 ([4]; buffer pH 2.0, 298.15 K): -28.66 kcal/mol | ΔSsolv0 ([4]; buffer pH 2.0, 298.15 K): −208.6 J·K^−1·mol^−1 | TΔSsolv0 ([4]; buffer pH 7.4, 298.15 K): -11.8 kcal/mol | ΔGsolv0 ([4]; buffer pH 7.4, 298.15 K): -14.2 kcal/mol | ΔHsolv0 ([4]; buffer pH 7.4, 298.15 K): -26.05 kcal/mol | ΔSsolv0 ([4]; buffer pH 7.4, 298.15 K): −165.6 J·K^−1·mol^−1

O=C1CCC(=O)N1 [Succinimide]
Δgcr Hm0 (298.15) ([1]; ref [6]): 20 kcal/mol | ΔgcrGm0 (298.15) ([1]; ref [6]): 8.77 kcal/mol

O.O=C1CN(/N=C/c2ccc([N+](=O)[O-])o2)C(=O)N1 [[NFT + H2O], nitrofurantoin monohydrate]
difference between equilibrium solubility of the monohydrate and solubility of anhydrous NFT ([2]; 313.15 K): ≤ 15% | X2 (solubility) [2, 6]: 0.73·10^5 mol.frac. | solubility X2·10^5 ([2]; buffer pH 2.0, 298.15 K): 0.73 mol. frac. | solubility X2·10^5 ([2]; buffer pH 2.0, 303.15 K): 1.07 mol. frac. | solubility X2·10^5 ([2]; buffer pH 2.0, 308.15 K): 1.43 mol. frac. | solubility X2·10^5 ([2]; buffer pH 2.0, 313.15 K): 1.96 mol. frac. | X2 (solubility) [2, 7]: 1.98·10^5 mol.frac. | solubility X2·10^5 ([2]; buffer pH 7.4, 303.15 K): 2.34 mol. frac. | solubility X2·10^5 ([2]; buffer pH 7.4, 308.15 K): 3.83 mol. frac. | solubility X2·10^5 ([2]; buffer pH 7.4, 313.15 K): 5.90 mol. frac. | TΔSsol0 ([4]; buffer pH 2.0, 298.15 K): 5.04 kcal/mol | ΔGsol0 ([4]; buffer pH 2.0, 298.15 K): 7 kcal/mol | ΔHsol0 ([4]; buffer pH 2.0, 298.15 K): 12.1 ± 0.406 kcal/mol | ΔSsol0 ([4]; buffer pH 2.0, 298.15 K): 70.9 ± 2.6 J·K^−1·mol^−1 | TΔSsol0 ([4]; buffer pH 7.4, 298.15 K): 10.6 kcal/mol | ΔGsol0 ([4]; buffer pH 7.4, 298.15 K): 6.41 kcal/mol | ΔHsol0 ([4]; buffer pH 7.4, 298.15 K): 17.2 ± 0.287 kcal/mol | ΔSsol0 ([4]; buffer pH 7.4, 298.15 K): 148.5 ± 2.0 J·K^−1·mol^−1 | ΔHw, vaporization enthalpy of water from the crystal (from DSC and TG, Equation (4)): 14.4 kcal/mol | sublimation enthalpy computed using Equation (5) (thermodynamic cycle: sublimation enthalpy of NFT + ΔHw): 47.85 kcal/mol | activation energy of dehydration process [5]: 46.8 to 47.1 kcal/mol
